Patent publication US12691101B2, “Compound and method for preventing or treating of respiratory diseases comprising the same as an active ingredient” (YONSEI UNIVERSITY, UNIVERSITY - INDUSTRY FOUNDATION (UIF), priority 2019, dated 2026)

How the values were obtained:
SLC26A7 = molecular target: T1, SLC26A7 (Homo sapiens, UniProt Q8TE54); assay: Cl^−/HCO3^− exchange in CHO-K1 cells expressing SLC26A7; format: cell-based
T1 construct: expressed in transfected cells; host or cells: CHO-K1
Procedure: (§1) (A) The inhibition of mouse pendrin (mPDS)-mediated Cl^−/I^− exchange activity by F56 was measured in CHO-K1 cells (mean±S.E., n=5). The indicated concentration of F56 was pretreated for 10 minutes. (B) Summary of dose-response for inhibition of the human pendrin (hPDS)-mediated (closed circle, FIG. (a), C) and mPDS-mediated (open circle) Cl^−/I^− exchange activity. (C-F) Representative traces of intracellular pH in CHO-K1 cells expressing SLC26A3, SLC26A6, SLC26A7 and SLC26A9 were shown. The application of Cl^− free solution induced intracellular alkalization by Cl^−/HCO3^− exchange. The indicated concentration of F56 was pretreated for 10 minutes. (G) the effect of F56 (100 μM) on the CFTR chloride channel activity was measured in FRT cells expressing human CFTR. The CFTR current was activated by 20 μM forskolin and was inhibited by 10 μM CFTRinh-172. (H) The effect of F56 (100 μM) on the AN01 chloride channel activity was measured in FRT cells expressing human AN01. Before 10 minutes prior to AN01 activation by 100 μM ATP, F56 was added. (Right) Peak current summary (mean±S.E., n=3). (I) The effect of F56 on the hERG (Kv11.1) potassium channel activity was measured in HEK293T cells expressing human Kv11.1 (mean±S.E., n=4). […] (J) The effect of F56 on the 5-HT2A channel activity was measured in FRT cells expressing human 5-HT2A (mean±S.E., n=4). […]

human 5-HT2A = molecular target: T2, human 5-HT2A (Homo sapiens, UniProt P28223); assay: 5-HT2A activity in FRT cells; format: cell-based; conditions: pretreated 10 minutes
T2 construct: expressed in transfected cells; host or cells: FRT cells co-expressing ANO1(abc) and YFP-F46L/H148Q/I152L
Procedure: as §1

pendrin = molecular target: T3, pendrin (Homo sapiens, UniProt O43511); assay: Pendrin-mediated Cl^−/HCO3^− exchange in IL-4-treated HNE and HBE cells; format: cell-based
T3 construct: endogenous in cells; host or cells: primary HNE and HBE cells, IL-4 treated
T3 sequence (O43511 whole entry): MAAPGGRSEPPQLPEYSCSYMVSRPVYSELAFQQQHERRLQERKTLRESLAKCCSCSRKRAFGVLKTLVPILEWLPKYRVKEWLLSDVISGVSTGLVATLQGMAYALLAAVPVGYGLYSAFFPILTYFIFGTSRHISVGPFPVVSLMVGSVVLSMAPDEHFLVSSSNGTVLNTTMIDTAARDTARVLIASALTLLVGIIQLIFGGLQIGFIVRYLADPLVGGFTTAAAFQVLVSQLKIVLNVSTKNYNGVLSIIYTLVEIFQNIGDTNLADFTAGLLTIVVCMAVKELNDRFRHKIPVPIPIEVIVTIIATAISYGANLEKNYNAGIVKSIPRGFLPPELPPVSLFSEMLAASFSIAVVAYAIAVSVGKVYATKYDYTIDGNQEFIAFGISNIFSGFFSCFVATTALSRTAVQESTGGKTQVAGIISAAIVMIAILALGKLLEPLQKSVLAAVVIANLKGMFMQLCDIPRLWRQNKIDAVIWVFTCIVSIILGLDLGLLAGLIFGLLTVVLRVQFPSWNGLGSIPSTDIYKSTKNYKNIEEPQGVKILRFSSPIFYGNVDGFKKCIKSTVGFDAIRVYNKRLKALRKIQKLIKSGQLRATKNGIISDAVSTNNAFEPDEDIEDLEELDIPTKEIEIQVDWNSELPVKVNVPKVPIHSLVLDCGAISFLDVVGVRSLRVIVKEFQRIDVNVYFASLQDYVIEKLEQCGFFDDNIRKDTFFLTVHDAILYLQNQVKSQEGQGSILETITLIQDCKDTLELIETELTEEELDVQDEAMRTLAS
Procedure: Chinese hamster ovary (CHO)-K1 cells were maintained in a DMEM medium containing 10% fetal bovine serum (FBS), 100 units/ml penicillin and 100 100 μg/ml streptomycin. CHO-K1 cells were stably transfected with pcDNA3.1 encoding halide sensor YFP-H148Q/I152L/F46L and human wild-type (WT)-pendrin. For distribution of primary culture of human nasal cavity epithelium (HNE) cells, passage-2 cells were seeded into transwell-transparent culture inserts with a pore size of 0.45 μm (Costar Co., Cambridge, MA) at a density of 2×10^5 cells/cm^2. […]
For measurement of Cl^−/HCO3^− exchange activity, intracellular pH (pHi) was measured in WT-pendrin expressing CHO-K1 and HNE cells using pH sensor SNARF5-AM (Molecular Probes). The cells were treated with 5 μM SNARF5-AM for 30 minutes, and then were equipped in a perfusion chamber on the stage of a reverse fluorescence microscope (Nikon, Tokyo, Japan) equipped with a cooled charge-coupled device camera (Zyla sCMOS), image acquisition and analysis software (Meta Imaging Series 7.7). […] SNARF5 fluorescence was recorded at 515±10 nm of the excitation wavelength and 640±10 nm of the emission wavelength, and intracellular pH calibration was performed with a solution including 145 mM KCl, 10 mM HEPES and […] nigericin having a calibrated pH to 6.2-7.6.

Serum T3 and T4 in mice = format: in vivo, mouse; conditions: 10 mg/kg/day for 1 week
Procedure: The negative effect of F56 was examined by i.p administering of F56 10 mg/kg to female balb/c mice every 24 hours for 7 days. In 24 hours after the last administration, the hearing of mice was measured and serum was obtained. According to the manufacturer's protocol, the total serum level of triiodothyronine (T3) or thyroxine (T4) using a mouse ELISA kit (Calbiotech, T3043T-100 or T4044T-100).

T1 sequence (Q8TE54 whole entry, species assumed): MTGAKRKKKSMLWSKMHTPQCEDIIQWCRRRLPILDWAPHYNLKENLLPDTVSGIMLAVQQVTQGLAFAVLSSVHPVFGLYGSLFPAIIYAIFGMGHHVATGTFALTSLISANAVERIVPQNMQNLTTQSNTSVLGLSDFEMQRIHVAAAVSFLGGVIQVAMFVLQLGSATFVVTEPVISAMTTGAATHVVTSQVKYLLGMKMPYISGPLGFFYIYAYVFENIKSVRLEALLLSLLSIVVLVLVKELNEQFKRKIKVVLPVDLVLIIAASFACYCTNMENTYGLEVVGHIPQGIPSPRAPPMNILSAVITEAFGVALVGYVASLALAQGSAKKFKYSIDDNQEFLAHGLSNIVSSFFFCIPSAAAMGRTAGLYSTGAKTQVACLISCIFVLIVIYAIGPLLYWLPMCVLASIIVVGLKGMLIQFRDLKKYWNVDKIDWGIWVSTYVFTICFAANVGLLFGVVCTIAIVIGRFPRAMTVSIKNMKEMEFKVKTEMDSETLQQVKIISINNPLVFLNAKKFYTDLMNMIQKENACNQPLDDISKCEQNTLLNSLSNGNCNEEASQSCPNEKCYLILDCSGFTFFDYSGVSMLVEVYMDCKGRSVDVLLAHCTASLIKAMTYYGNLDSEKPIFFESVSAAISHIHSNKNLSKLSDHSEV

CC(C)(C)c1ccc(C2=NC(=Cc3cccs3)C(=O)O2)cc1 [F56, 2-(4-(tert-butyl)phenyl)-4-(thiophen-2-ylmethylene)oxazol-5(4H)-one]
effect on SLC26A7 Cl^−/HCO3^− exchange (SLC26A7): did not affect | effect on 5-HT2A activity (human 5-HT2A): not affected | inhibition of pendrin-mediated Cl^−/HCO3^− exchange activity (pendrin; IL-4-treated HNE and HBE cells, acute treatment): potentially inhibited | IL-4-induced upregulation of the Cl^−/HCO3^− exchange activity (pendrin; long-term treatment, HNE cells): strongly reduced | T3 and T4 plasma level (Serum T3 and T4 in mice): not changed
